Results from patent publication US12516293B2, “Reagents and methods with Wnt agonists and bioactive lipids for generating and expanding cardiomyocytes” (The Board of Trustees of the Leland Stanford Junior …, priority 2018, dated 2026).

Key:
Format in all cases: cell-based, human
hiPSC-CMs [1] = test: ki67/pHH3 proliferation and binucleation of hiPSC-CMs (immunofluorescence); conditions: day 12 hiPSC-CMs (P0), 24 hrs treatment
Method: Immunohistochemistry was performed with the incubation of primary antibodies overnight followed by 2 hours of incubation with various Alexa fluorescence conjugated secondary antibodies. Images were made with confocal (Zeiss LSM 710) or regular immunofluorescence microscopy (Leica DM IL LED). Primaries used in this study were cardiac troponin T (MS-295, Fisher), Ki67 (ab15580, Abcam), pHH3 (#9701, Cell Signaling), aurora B (ab2254, Abcam), alpha sarcomeric actinin ([…], Sigma-Aldrich), MLC2V (ab48003, Abcam), phospo AKT […] (#9275, Cell Signaling). […] To examine this, the percentage was determined of troponin T (TnT) positive hiPSC-CMs that express the cell cycle marker ki67 or the mitosis marker phospho-histone H3 (pHH3) at each passage after treatment with CHIR or DMSO (CTR) (FIG. 2A-C). […] The short-term (24 hrs) changes were assessed in proliferation rate of day 12 hiPSC-CMs (P0) after treatment with CHIR-, CTR-, or C59, a specific inhibitor of Wnt signaling (FIG. 2I-J).

hiPSC-CMs [2] = test: Sarcomere alignment and contractility on micropatterns; conditions: C59 added to cells previously treated with CHIR (CHIR>C59)
Method: Cells were plated on soft substrates with micropatterned proteins on top. After 3-6 days of culture high resolution movies (Sony Microscopy) were recorded for at least 10 individual cells per group and motion velocity analysis was processed digitally. After recordings, cells were fixed and used for immunohistochemistry and confocal imaging. Sarcomere alignment was quantified with Image J software. CM maturation is accompanied by the formation of highly structured sarcomere, bi- or multinucleation, and cell cycle exit (Bassat et al., 2017; Bersell et al., 2009; Senyo et al., 2014; Uygur and Lee, 2016). […] To address this, age-matched hiPSC-CMs exposed to media containing DMSO (CTR) were compared to ones that have undergone 3 passages in media containing 2.0 μM CHIR using various phenotypic assays of CM function. To assess sarcomere alignment, CHIR and CTR hiPSC-CMs on 7:1 aspect ratio micropatterns (Ribeiro et al., 2015) were cultured and immunostained with TnT and sarcomeric actinin antibodies.

hiPSC-CMs [3] = test: Real-time PCR / immunostaining of cardiac gene expression in hiPSC-CMs
Method: For quantitative analysis of gene expression, RNA was extracted with a lysis buffer (Qiagen) from hiPSC-CMs and stored at −80° C. Total RNA from each sample was purified from cell lysate using a RNA purification kit (Qiagen). cDNA was made using iScript cDNA synthesis kit (BioRad). Quantitative PCR was performed using a 96-well thermocycler system (Biorad) with SYBR Green substrate (Affymetrix) for 40 cycles. All primers sequences were obtained from the PrimerBank (Massachusetts General Hospital/Harvard Medical School) online database. […] Day 12 hiPSC-CMs were cultured in CHIR continuously for 2 months with serial passaging followed by CHIR withdrawal for an additional month.

hiPSC-CMs [4] = test: Cell cycle activity in well-differentiated hiPSC-CMs (ki67, pHH3, cell count); conditions: 5 μM VPC23019 together with S1P
Method: To address this, well-differentiated hiPSC-CMs were generated (e.g. day 30 or later) using chemically-defined protocols (Burridge et al. 2014; Churko et al. 2013; Sharma et al. 2015) (Movie S1) and treated them with S1P/LPA or CHIR or both (FIG. 18A). The presence of S1P/LPA receptors in these cells was first validated (FIG. 21). Immunofluorescence staining was then performed for ki67, a marker of cell cycle activity, and phospho Histone H3 (pHH3), a mitosis marker, in cardiac troponin T (TnT) positive cells.

TCF/LEF = test: TOPFlash TCF/LEF luciferase reporter in day 12 hiPSC-CMs
Method: Day 12 hiPSC-CMs were transfected for 48h with a TCF reporter plasmid (TOPflash M50, Addgene) or the mutant reporter plasmid (TOPflash M51, Addgene) and the use of Lipofectamine 3000 (Invitrogen). 72h after transfection cells were treated with various small molecules for 24h. Cells were lysed and mixed with luciferase substrate (Promega) and the firefly luciferase expression was measured with a 96-well micro plate reader (Fisher).

hiPSC-CMs [5] = test: CHIR-mediated hiPSC-CM proliferation with pathway inhibitors
YAP = YAP nuclear accumulation in hiPSC-CMs; conditions: day 10 or day 30 hiPSC-CMs
Method: Given the well-known role of Hippo/Yap signaling in regulating cardiomyocyte and non-myocyte proliferation and regeneration (Yusuf et al. 2012; Heallen et al. 2011; Morikawa et al. 2017; Leach et al. 2017; von Gise et al. 2012), the ability of bioactive lipids was assessed to promote nuclear accumulation of Yap (FIG. 23). […] Consequently, no increase in nuclear YAP accumulation was observed following bioactive lipid treatment (FIG. 23B).

hiPSC-CMs [6] = test: Wnt receptor ligands on hiPSC-CM expansion and cell-cycle reactivation; conditions: day 12 proliferative hiPSC-CMs
Text: Reactivating Wnt signaling may promote proliferation in aged, non-proliferative CMs rather than simply maintain pre-existing proliferation (FIG. 6A). […]

Molecule: Cc1cc(-c2ccc(CC(=O)Nc3ccc(-c4cccnc4)cc3)cc2)ccn1 [C59]
- ki67 expression / proliferation rate (hiPSC-CMs [1]): did not result in a decreased rate of hiPSC-CM proliferation
- sarcomere organization after C59 (hiPSC-CMs [2]): reorganization of their sarcomeres to a state similar to the age-matched control hiPSC-CMs
- expression of maturation, excitation, contractility and metabolism markers (hiPSC-CMs [3]; 3 additional weeks after CHIR day 12 to 28, compared with continued CHIR): upregulation of markers associated with cardiomyocyte maturation
- MYL2 immunofluorescence staining (hiPSC-CMs [3]; compared with CHIR-treated cells): increase in immunofluorescence staining for MYL2

Molecule: CCCCCCCCc1cccc(NC(=O)[C@H](N)COP(=O)(O)O)c1 [VPC23019]
- expression of ki67 in S1P-treated hiPSC-CMs (hiPSC-CMs [4]): reduced

Molecule: NC1(c2ccc(-c3nc4ccn5c(=O)[nH]nc5c4cc3-c3ccccc3)cc2)CCC1 [MK2206]
- TCF/LEF luciferase activity (TCF/LEF; CHIR and MK2206, 24 hrs): not due to the downregulation of downstream β-catenin signaling
- mitotic cells expressing pAKT (hiPSC-CMs [5]; CHIR and MK2206 vs CHIR alone): far fewer mitotic cells
- CM replication (hiPSC-CMs [5]; CHIR and MK2206 vs CHIR alone, 6 days): decreased

Molecule: lysophosphatidic acid [LPA]
- YAP nuclear accumulation (YAP): No significant (N.S.) increase in YAP nuclear accumulation

Molecule: Cc1ccc(/C=N/NC(=O)c2ccccc2Oc2ccccc2)o1 [PNU74654]
- CHIR-induced activation of TCF/LEF luciferase reporter (TCF/LEF; CHIR in the presence of PNU74654, 24 hrs): abolished
- CHIR-induced Wnt target gene expression (hiPSC-CMs [3]; co-treatment with CHIR, qPCR): abolish this increase
- markers of hiPSC-CM maturation (MYL2, MYH7, MYOM1) (hiPSC-CMs [3]; co-treatment with CHIR, qPCR): recovered fully
- decrease of CHIR-mediated hiPSC-CM proliferation (hiPSC-CMs [5]; CHIR in the presence of PNU74654 vs CHIR alone): ~50%

B1: Wnt3A: purified Wnt3A protein (R&D systems), Wnt receptor ligand (protein, UniProt P56704 19-352, looked up)
Protein Wnt-3a: SYPIWWSLAVGPQYSSLGSQPILCASIPGLVPKQLRFCRNYVEIMPSVAEGIKIGIQECQHQFRGRRWNCTTVHDSLAIFGPVLDKATRESAFVHAIASAGVAFAVTRSCAEGTAAICGCSSRHQGSPGKGWKWGGCSEDIEFGGMVSREFADARENRPDARSAMNRHNNEAGRQAIASHMHLKCKCHGLSGSCEVKTCWWSQPDFRAIGDFLKDKYDSASEMVVEKHRESRGWVETLRPRYTYFKVPTERDLVYYEASPNFCEPNPETGSFGTRDRTCNVSSHGIDGCDLLCCGRGHNARAERRREKCRCVFHWCCYVSCQECTRVYDVHTCK
- CM expansion (TnT positive cell number) (hiPSC-CMs [6]): promoted CM expansion
